One assay addresses T1, human TLR8 (Homo sapiens, UniProt Q9NR97).
T1 construct: host or cells: HEK-Blue cells
T1 sequence (Q9NR97 27-1041): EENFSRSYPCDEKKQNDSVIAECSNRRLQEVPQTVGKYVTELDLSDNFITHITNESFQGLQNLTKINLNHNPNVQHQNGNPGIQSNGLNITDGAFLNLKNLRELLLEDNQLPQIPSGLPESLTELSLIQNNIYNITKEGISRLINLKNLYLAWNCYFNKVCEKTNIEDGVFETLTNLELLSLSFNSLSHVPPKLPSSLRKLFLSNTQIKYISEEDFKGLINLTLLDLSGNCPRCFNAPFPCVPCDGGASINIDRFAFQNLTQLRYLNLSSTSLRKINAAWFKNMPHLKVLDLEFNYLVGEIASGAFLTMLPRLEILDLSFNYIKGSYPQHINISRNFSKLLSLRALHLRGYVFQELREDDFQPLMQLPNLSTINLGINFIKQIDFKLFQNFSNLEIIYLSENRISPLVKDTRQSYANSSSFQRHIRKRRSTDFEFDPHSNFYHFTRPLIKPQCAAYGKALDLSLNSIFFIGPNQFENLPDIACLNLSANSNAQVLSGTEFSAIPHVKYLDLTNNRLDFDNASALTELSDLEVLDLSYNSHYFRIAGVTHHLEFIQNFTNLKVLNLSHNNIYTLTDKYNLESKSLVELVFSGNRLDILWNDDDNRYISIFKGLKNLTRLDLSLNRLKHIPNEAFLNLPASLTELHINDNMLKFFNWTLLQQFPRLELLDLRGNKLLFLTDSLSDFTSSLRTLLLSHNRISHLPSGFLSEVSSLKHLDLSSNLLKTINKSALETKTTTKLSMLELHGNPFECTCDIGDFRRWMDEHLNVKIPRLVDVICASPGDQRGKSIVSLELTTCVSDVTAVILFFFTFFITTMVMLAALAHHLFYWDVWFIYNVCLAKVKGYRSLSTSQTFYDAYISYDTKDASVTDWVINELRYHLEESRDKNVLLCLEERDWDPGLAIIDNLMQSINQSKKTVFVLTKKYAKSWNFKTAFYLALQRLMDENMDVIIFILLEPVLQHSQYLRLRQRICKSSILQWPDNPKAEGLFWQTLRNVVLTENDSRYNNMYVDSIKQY
In words: TLR8 inhibition reporter assay (HEK-Blue cells, SEAP reporter, R848 stimulation). Format: cell-based. As to conditions: HEK-Blue cells overexpressing human TLR8, SEAP reporter, R848 15.9 μM; read-out: TLR8 IC50. The procedure:
(§1) TLR7/8/9 Inhibition Reporter Assays
(§2) HEK-Blue™-cells (Invivogen) overexpressing human TLR7, TLR8 or TLR9 receptors were used for screening inhibitors of these receptors using an inducible SEAP (secreted embryonic alkaline phosphatase) reporter gene under the control of the IFN-β minimal promoter fused to five NF-κB and AP-1-binding sites. Briefly, cells are seeded into Greiner 384 well plates (15000 cells per well for TLR7, 20,000 for TLR8 and 25,000 for TLR9) and then treated with test compounds in DMSO to yield a final dose response concentration range of 0.05 nM-50 μM. After a 30 minute compound pre-treatment at room temperature, the cells are then stimulated with a TLR7 ligand (gardiquimod at a final concentration of 7.5 μM), TLR8 ligand (R848 at a final concentration of 15.9 μM) or TLR9 ligand (ODN2006 at a final concentration of 5 nM) to activate NF-κB and AP-1 which induce the production of SEAP. After a 22 hour incubation at 37° C., 5% CO2, SEAP levels are determined with the addition of HEK-Blue™ Detection reagent (Invivogen), a cell culture medium that allows for detection of SEAP, according to manufacturer's specifications. The percent inhibition is determined as the % reduction in the HEK-Blue signal present in wells treated with agonist plus DMSO alone compared to wells treated with a known inhibitor.

A further assay deals with T2, human TLR7 (Homo sapiens, UniProt Q9NYK1).
T2 construct: host or cells: HEK-Blue cells
T2 sequence (Q9NYK1 27-1049): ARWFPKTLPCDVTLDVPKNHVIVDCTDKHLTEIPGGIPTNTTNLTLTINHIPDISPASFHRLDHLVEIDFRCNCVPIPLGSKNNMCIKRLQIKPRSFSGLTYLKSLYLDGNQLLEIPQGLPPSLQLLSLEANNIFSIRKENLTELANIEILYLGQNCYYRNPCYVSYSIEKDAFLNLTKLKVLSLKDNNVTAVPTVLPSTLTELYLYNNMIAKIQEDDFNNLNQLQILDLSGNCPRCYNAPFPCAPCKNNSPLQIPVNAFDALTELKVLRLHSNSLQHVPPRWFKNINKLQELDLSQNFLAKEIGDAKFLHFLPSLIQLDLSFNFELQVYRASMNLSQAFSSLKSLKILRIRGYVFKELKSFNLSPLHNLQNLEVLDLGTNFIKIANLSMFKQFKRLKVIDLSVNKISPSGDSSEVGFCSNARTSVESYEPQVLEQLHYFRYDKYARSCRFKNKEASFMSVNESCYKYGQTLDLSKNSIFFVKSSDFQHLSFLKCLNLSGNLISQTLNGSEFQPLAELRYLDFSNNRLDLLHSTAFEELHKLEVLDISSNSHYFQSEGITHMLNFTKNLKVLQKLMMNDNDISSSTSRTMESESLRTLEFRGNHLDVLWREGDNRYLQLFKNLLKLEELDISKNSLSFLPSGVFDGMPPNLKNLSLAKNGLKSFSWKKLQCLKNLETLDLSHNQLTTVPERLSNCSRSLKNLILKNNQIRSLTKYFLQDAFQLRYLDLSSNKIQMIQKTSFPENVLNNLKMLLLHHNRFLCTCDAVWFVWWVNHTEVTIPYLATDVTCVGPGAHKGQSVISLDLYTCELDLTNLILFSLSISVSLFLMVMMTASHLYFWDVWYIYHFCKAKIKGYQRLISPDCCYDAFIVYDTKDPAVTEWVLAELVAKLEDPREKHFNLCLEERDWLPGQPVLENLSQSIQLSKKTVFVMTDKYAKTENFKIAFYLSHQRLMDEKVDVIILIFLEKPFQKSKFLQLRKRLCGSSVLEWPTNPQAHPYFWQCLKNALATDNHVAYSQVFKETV
In words: TLR7 inhibition reporter assay (HEK-Blue cells, SEAP reporter, gardiquimod stimulation). It counts as cell-based. As to conditions: HEK-Blue cells overexpressing human TLR7, SEAP reporter, gardiquimod 7.5 μM; read-out: TLR7 IC50. The method, then:
as §1, §2

As for `Cc1c(-c2[nH]c3sc(N4CCN(CC(=O)N(C)C)CC4)nc3c2C(C)C)cn2ncnc2c1C` [Example 283, 2-(4-(5-(7,8-dimethyl-[1,2,4]triazolo[1,5-a]pyridin-6-yl)-6-isopropyl-4H-pyrrolo[3,2-d]thiazol-2-yl)piperazin-1-yl)-N,N-dimethylacetamide], the half-maximal inhibitory concentration (IC50) is 1.7 nM on human TLR8 and 18.8 nM at human TLR7.

`CNC(=O)CN1CCN(c2nc3c(C(C)C)c(-c4cn5ncnc5c(C)c4C)[nH]c3s2)CC1` [Example 284, 2-(4-(5-(7,8-dimethyl-[1,2,4]triazolo[1,5-a]pyridin-6-yl)-6-isopropyl-4H-pyrrolo[3,2-d]thiazol-2-yl)piperazin-1-yl)-N-methylacetamide]: the figures for the IC50 at human TLR8 and on human TLR7 were 5.12 nM and 9.6 nM, respectively.

As to `Cc1c(-c2[nH]c3sc(N4CCN(CC(N)=O)CC4)nc3c2C(C)C)cn2ncnc2c1C` [Example 285, 2-(4-(5-(7,8-dimethyl-[1,2,4]triazolo[1,5-a]pyridin-6-yl)-6-isopropyl-4H-pyrrolo[3,2-d]thiazol-2-yl)piperazin-1-yl)acetamide], the concentration for half-maximal inhibition (IC50) at human TLR8 amounted to 2.71 nM; at human TLR7, 7.7 nM.

On to `Cc1c(-c2[nH]c3sc(N4CCN(C5COC5)CC4)nc3c2C(C)C)cn2ncnc2c1C` [Example 286, 5-(7,8-dimethyl-[1,2,4]triazolo[1,5-a]pyridin-6-yl)-6-isopropyl-2-(4-(oxetan-3-yl)piperazin-1-yl)-4H-pyrrolo[3,2-d]thiazole], for which the 50% inhibitory concentration (IC50) was 14.6 nM at human TLR8 and 25.6 nM at human TLR7.

Turning to `Cc1c(-c2[nH]c3sc(N4CC5(C4)CN(C4COC4)C5)nc3c2C(C)C)cn2ncnc2c1C` [Example 302, 5-(7,8-dimethyl-[1,2,4]triazolo[1,5-a]pyridin-6-yl)-6-isopropyl-2-(6-(oxetan-3-yl)-2,6-diazaspiro[3.3]heptan-2-yl)-4H-pyrrolo[3,2-d]thiazole], the values for the IC50 at human TLR8 and at human TLR7 were 14.2 nM and 9.44 nM, respectively.

Turning to `Cc1c(-c2[nH]c3sc(N4CC5(CN(CCS(C)(=O)=O)C5)C4)nc3c2C(C)C)cn(C)c(=O)c1C` [Example 305, 5-(6-isopropyl-2-(6-(2-(methylsulfonyl)ethyl)-2,6-diazaspiro[3.3]heptan-2-yl)-4H-pyrrolo[3,2-d]thiazol-5-yl)-1,3,4-trimethylpyridin-2(1H)-one], the figures for the 50% inhibitory concentration (IC50) at human TLR8 and on human TLR7 were 70 nM and 311 nM, respectively.

Consider `Cc1c(-c2[nH]c3sc(N4CC5(C4)CN(C4COC4)C5)nc3c2C(C)C)cn(C)c(=O)c1C` [Example 306, 5-(6-isopropyl-2-(6-(oxetan-3-yl)-2,6-diazaspiro[3.3]heptan-2-yl)-4H-pyrrolo[3,2-d]thiazol-5-yl)-1,3,4-trimethylpyridin-2(1H)-one], for which the figures for the half-inhibitory concentration (IC50) on human TLR8 and at human TLR7 were 124 nM and 148 nM, respectively.

On to `Cc1c(-c2[nH]c3sc(N4CC5(CN(CC6CCOCC6)C5)C4)nc3c2C(C)C)cn(C)c(=O)c1C` [Example 307, 5-(6-isopropyl-2-(6-((tetrahydro-2H-pyran-4-yl)methyl)-2,6-diazaspiro[3.3]heptan-2-yl)-4H-pyrrolo[3,2-d]thiazol-5-yl)-1,3,4-trimethylpyridin-2(1H)-one], for which the IC50 was 9.33 nM at human TLR8 and 118 nM on human TLR7.

Take `Cc1c(-c2[nH]c3sc(N4CCN(CC(=O)N(C)C)C[C@H]4C)nc3c2C(C)C)cn2ncnc2c1C` [Example 312, (R)-2-(4-(5-(7,8-dimethyl-[1,2,4]triazolo[1,5-a]pyridin-6-yl)-6-isopropyl-4H-pyrrolo[3,2-d]thiazol-2-yl)-3-methylpiperazin-1-yl)-N,N-dimethylacetamide]: the results for the IC50 on human TLR8 and on human TLR7 were 17.8 nM and 5.42 nM, respectively.

For `Cc1c(-c2[nH]c3sc(N4CCN(CC(N)=O)C[C@H]4C)nc3c2C(C)C)cn2ncnc2c1C` [Example 313, (R)-2-(4-(5-(7,8-dimethyl-[1,2,4]triazolo[1,5-a]pyridin-6-yl)-6-isopropyl-4H-pyrrolo[3,2-d]thiazol-2-yl)-3-methylpiperazin-1-yl)acetamide], the IC50 on human TLR8 was found to be 1.72 nM; at human TLR7 it was 3.71 nM.

As to `Cc1c(-c2[nH]c3sc(N4CCN(CCS(C)(=O)=O)C[C@H]4C)nc3c2C(C)C)cn2ncnc2c1C` [Example 314, (R)-5-(7,8-dimethyl-[1,2,4]triazolo[1,5-a]pyridin-6-yl)-6-isopropyl-2-(2-methyl-4-(2-(methylsulfonyl)ethyl)piperazin-1-yl)-4H-pyrrolo[3,2-d] thiazole], the 50% inhibitory concentration (IC50) at human TLR8 was determined as 18.5 nM; at human TLR7, 13.9 nM.

Turning to `CNC(=O)CN1CCN(c2nc3c(C(C)C)c(-c4cn5ncnc5c(C)c4C)[nH]c3s2)[C@H](C)C1` [Example 315, (R)-2-(4-(5-(7,8-dimethyl-[1,2,4]triazolo[1,5-a]pyridin-6-yl)-6-isopropyl-4H-pyrrolo[3,2-d]thiazol-2-yl)-3-methylpiperazin-1-yl)-N-methylacetamide], the IC50 on human TLR8 was found to be 20.2 nM; at human TLR7, 5.22 nM.

On to `Cc1c(-c2[nH]c3sc(N4CCN(C5COC5)C[C@H]4C)nc3c2C(C)C)cn2ncnc2c1C` [Example 316, (R)-5-(7,8-dimethyl-[1,2,4]triazolo[1,5-a]pyridin-6-yl)-6-isopropyl-2-(2-methyl-4-(oxetan-3-yl)piperazin-1-yl)-4H-pyrrolo[3,2-d]thiazole], for which the 50% inhibitory concentration (IC50) on human TLR8 came out at 52.4 nM; on human TLR7, 12 nM.

For the molecule `Cc1c(-c2[nH]c3sc(N4C[C@@H](C)N(CC(=O)N(C)C)C[C@@H]4C)nc3c2C(C)C)cn2ncnc2c1C` [Example 335, 2-((2R,5S)-4-(5-(7,8-dimethyl-[1,2,4]triazolo[1,5-a]pyridin-6-yl)-6-isopropyl-4H-pyrrolo[3,2-d]thiazol-2-yl)-2,5-dimethylpiperazin-1-yl)-N,N-dimethylacetamide], the concentration for half-maximal inhibition (IC50) on human TLR8 worked out at 11.1 nM; at human TLR7, 15.5 nM.
